Laboratory results taken from the NIST ThermoML archive (doi:10.1021/je0602519).

Test: xn = mol fraction of the nth substance listed
Conditions: 101 kPa, Liquid; for speed of sound: Frequency=2 MHz, Linear variable-path acoustic interferometer; for mass density: Pycnometric method

CCCCCCCO [heptan-1-ol] + Cc1ccccc1
Conditions	mass density, 303.15 K [kg/m3]	mass density, 313.15 K [kg/m3]	speed of sound, 303.15 K [m/s]	speed of sound, 313.15 K [m/s]	viscosity, 303.15 K [mPa·s]	viscosity, 313.15 K [mPa·s]
x2 = 0	814.89	807.68	1313	1279	5.048	3.712
x2 = 0.0525	816.52	809.17	1310	1274	4.404	3.362
x2 = 0.1014	818.06	810.59	1307	1271	3.859	3.074
x2 = 0.1518	819.67	812.07	1304	1267	3.4	2.77
x2 = 0.1859	820.78	813.13	1301	1263	3.154	2.55
x2 = 0.2489	822.84	815.02	1296	1258	2.645	2.226
x2 = 0.3011	824.61	816.69	1291	1251	2.314	1.986
x2 = 0.3504	826.34	818.24	1286	1247	2.042	1.77
x2 = 0.4006	828.07	819.87	1282	1242	1.796	1.583
x2 = 0.4494	829.88	821.57	1278	1237	1.594	1.436
x2 = 0.5003	831.83	823.35	1274	1233	1.399	1.271
x2 = 0.5486	833.72	825.14	1271	1230	1.25	1.144
x2 = 0.5903	835.44	826.72	1269	1227	1.113	1.069
x2 = 0.6493	837.95	829.09	1266	1226	0.982	0.965
x2 = 0.7011	840.28	831.32	1266	1225	0.888	0.84
x2 = 0.752	842.69	833.57	1267	1226	0.776	0.772
x2 = 0.8041	845.27	836.02	1268	1228	0.673	0.682
x2 = 0.8495	847.69	838.32	1272	1232	0.635	0.639
x2 = 0.9009	850.55	841.07	1276	1239	0.588	0.573
x2 = 0.9487	853.39	843.85	1282	1245	0.546	0.528
